{"source": "patent US20170320939A1", "about": "“COLL2-1 PEPTIDE AND ITS NITRATED FORM AS THERAPEUTIC TARGETS FOR OSTEOARTHRITIS TREATMENT” (Université de Liège, priority 2014, published 2017)", "key": {"[1]": {"tested_on": "female Lewis rats", "assay": "In-vivo study, I.A. injection compared to SCW (streptococcal cell walls) model", "conditions": "for global histological score, right knee (injected): not significant", "procedure": "(§1) An in-vivo study was performed to evaluate the potential immunizing effect of Coll2-1 peptide. This effect was evaluated in comparison with two validated models of rheumatoid arthritis: CIA (Collagen induced arthritis) and SCW (Streptococcal cell walls). The peptide has been injected once subcutaneous, at the base of the tail (S.C.—evaluation of systemic inflammation) or intra-articular (I.A.—evaluation of mono-articular inflammation) in female Lewis rats. Naïve controls (saline) were considered. Animals were euthanized 21 or 28 days after injection.\n(§2) All animals (n=108 females; 96.0-129.7 gr) included in the study were identified by a unique chip. They were randomly distributed into 8 study groups (n=16/group except nave controls n=6/group, n=8/each time point) before induction (DO) based on their body weight (FIG. 1). • Injected controls (2 groups) • Group 1: bovin type II collagen (CIA)—S.C. (n=16) • Group 2: streptococcal cell wail (SCW)—I.A. (n=16) • Test groups (4 groups) • Group 3: Peptide dose 200 μg/100 μl—S.C. (n=16) • Group 4: Peptide dose 20 μg/100 μl—S.C. (n=16) • Group 5: Peptide dose 5 μg/50 μl—I.A. (n=16) • Group 6: Peptide dose 0.5 μg/50 μl—I.A. (n=16) • Naïve controls (2 groups) • Group 7: saline S.C. (n=6) • Group 8: saline I.A. (n=6)\n(§3) Two injection ways were chosen to evaluate the potential effect of the peptide: intra-articular (I.A.) and subcutaneous (S.C.), two route classically used in the art.\n(§4) Coll2-1 peptide was administered either I.A. under a 50 μL volume into the right knee or S.C. under a 100 μL volume at the base of the tail.\n(§5) SCW was administered I.A. into the right knee under a 50 μL volume. Bovine type II collagen (CIA) was administered under 100 μL volume at the base of the tail.\n(§6) Two doses of the Coll2-1 peptide were tested in both conditions.\nIt was administered I.A. at 5 and 0.5 μg under 50 μL\n(§7) Coll2-1 peptide was administered once (DO).\n(§8) Joint was considered arthritic when significant signs of redness and/or swelling was noted. Each paw was evaluated with a visual score (0-3) • 0: normal, no joint inflammation • 1: large joint inflammation • 2: medium joint inflammation • 3: small joint (distal) inflammation\n(§9) A set of 4 values were recorded on each evaluation day. The 4 values were summed for analysis.\n(§10) Right and left knees diameter were measured using a digital caliper.\n(§11) Animals were euthanized 21 or 28 days after injection (D0). They were anesthetized with a subcutaneous injection of a Ketamin/Medetomidine mix and further euthanized by exsanguination.\n(§12) Both entire knees from each animal were processed for histological analysis, They were decalcified in a HCl/EDTA mix (DC2, Qpath, VWR Belgium) for the appropriate time before inclusion in paraffin. Three frontal sections (5 μm) of each compartment were done 200 μm apart in the weight bearing zone using a microtome. Slides were stained according to a standard Safranin-O/Fast green protocol.\n(§13) Slides were evaluated under a light microscope. Each slide was score for: • Infiltration of inflammatory cells in synovial tissue (0-3) • Inflammatory cells in the joint cavity (exudate) (0-3) • Cartilage proteoglycan depletion (0-3) • Loss of articular cartilage (0-3) • Bone erosion (0-3).\n(§14) Infiltration of inflammatory cells in synovial tissue and inflammatory cells in the joint cavity were considered together (sum of the scores) as inflammatory parameters for the analysis of the detailed criteria.\n(§15) Statistical analysis was performed with the appropriate test using GraphPad. • Visual score and evaluations (knee diameter measurements) were analyzed with a two way ANOVA followed, if positive, by Tukey's multiple comparison test. Graphs represented the mean of each group at each evaluated time point. • Histological scores were analyzed with a Kruskal Wallis for non-parametric values followed, if positive, by a Dunn's multiple comparison test. Graphs presented as box and whisker plots. Exact p values were provided and asterisks representation were also performed."}, "[2]": {"tested_on": "female Lewis rats", "assay": "In-vivo study, S.C. injection compared to CIA (collagen induced arthritis) model", "conditions": "for arthritis visual score, difference versus saline (Group 7): D17", "procedure": "as §1, §2, §3, §4, §5, §6\nIt was administered S.C. at 200 and 20 μg under 100 μL.\nas §7, §8, §9, §10, §11, §12, §13, §14, §15"}}, "data": [{"sequence": "HRGYPGLDG [Coll2-1]", "values": [{"measurement": "cartilage degradation score, left knee", "setting": "[1]; Coll2-1 0.5 μg I.A. (Gr6)", "value": "significant increase"}, {"measurement": "inflammatory score, left knee, versus Gr8", "setting": "[1]; Coll2-1 0.5 μg I.A. (Gr6)", "value": "significant increase"}, {"measurement": "matrix proteoglycan loss score, left knee, versus Gr8", "setting": "[1]; Coll2-1 0.5 μg I.A. (Gr6)", "value": "significant increase"}, {"measurement": "right knee diameter, difference versus Gr8 (saline)", "setting": "[1]; Coll2-1 0.5 μg I.A. (Gr6), D3", "value": "statistically different"}, {"measurement": "arthritis visual score, difference versus saline (Gr8)", "setting": "[1]; Coll2-1 0.5 μg I.A. (Gr6), D28", "value": "statistically different"}, {"measurement": "cartilage degradation score, right knee, versus Gr8", "setting": "[1]; Coll2-1 0.5 μg I.A. (Gr6), D28", "value": "significant increase"}, {"measurement": "global histological score, left knee, difference versus Gr2", "setting": "[1]; Coll2-1 0.5 μg I.A. (Gr6), D28", "value": "not significant except for Gr6"}, {"measurement": "global histological score, left knee, difference versus Gr8", "setting": "[1]; Coll2-1 0.5 μg I.A. (Gr6), D28", "value": "not significant except for Gr6"}, {"measurement": "global histological score, right knee (injected)", "setting": "[1]; Coll2-1 0.5 μg I.A. (Gr6)", "value": "intermediate between Gr8 (saline) and Gr2 (SCW)"}, {"measurement": "global histological score, left knee, differences", "setting": "[1]; Coll2-1 5 μg I.A. (Gr5)", "value": "not significant"}, {"measurement": "arthritis visual score, difference versus Gr 6 (Coll2-1 peptide 0.5 μg)", "setting": "[1]; Coll2-1 5 μg I.A. (Gr5), D17", "value": "statistically different"}, {"measurement": "arthritis visual score, difference versus saline (Gr8)", "setting": "[1]; Coll2-1 5 μg I.A. (Gr5), D17", "value": "statistically different"}, {"measurement": "left knee diameter, difference versus Gr2 (SCW)", "setting": "[1]; Coll2-1 5 μg I.A. (Gr5), D17", "value": "statistically different"}, {"measurement": "left knee diameter, difference versus Gr8 (saline)", "setting": "[1]; Coll2-1 5 μg I.A. (Gr5), D17", "value": "statistically different"}, {"measurement": "right knee diameter, difference versus Gr8 (saline)", "setting": "[1]; Coll2-1 5 μg I.A. (Gr5), D17", "value": "statistically significance"}, {"measurement": "arthritis visual score, difference versus SCW (Gr2)", "setting": "[1]; Coll2-1 5 μg I.A. (Gr5), D24", "value": "statistically different"}, {"measurement": "global histological score, right knee (injected)", "setting": "[1]; Coll2-1 5 μg I.A. (Gr5)", "value": "intermediate between Gr8 (saline) and Gr2 (SCW)"}, {"measurement": "right knee diameter, difference Gr5 versus Gr6", "setting": "[1]; Coll2-1 5 μg versus 0.5 μg I.A., D17", "value": "statistically different"}, {"measurement": "inflammatory criteria, right knee", "setting": "[1]; Coll2-1 peptide I.A., D28, not statistically significant", "value": "intermediate increase"}, {"measurement": "histological score (conclusion)", "setting": "[1]; SCW arthritis model, I.A. injection, D21 and D28", "value": "intermediate scores"}, {"measurement": "arthritis visual score", "setting": "[1]; single I.A. injection into the right knee, D0 to D28", "value": "induced an increase"}, {"measurement": "inflammatory criteria (histology)", "setting": "[2]; Coll2-1 20 μg S.C. (Gr4), 028", "value": "Significant increase"}, {"measurement": "cartilage degradation criteria", "setting": "[2]; Coll2-1 20 μg S.C. (Gr4), D28", "value": "Significant increase"}, {"measurement": "loss of matrix proteoglycan", "setting": "[2]; Coll2-1 20 μg S.C. (Gr4), D28", "value": "Significant increase"}, {"measurement": "subchondral bone modification score", "setting": "[2]; Coll2-1 20 μg S.C. (Gr4), D28", "value": "Significant increase"}, {"measurement": "arthritis visual score, difference versus bovine type II collagen (Group 1)", "setting": "[2]; Coll2-1 20 μg S.C. (Group 4), D21", "value": "statistically different"}, {"measurement": "global histological score, right and left knees together, versus saline (Group 7)", "setting": "[2]; Coll2-1 20 μg S.C. (Group 4), D28", "value": "significant increase"}, {"measurement": "arthritis visual score, difference versus saline (Group 7)", "setting": "[2]; Coll2-1 20 μg/100 μl S.C. (Group 4)", "value": "statistically significant"}, {"measurement": "inflammatory criteria (histology)", "setting": "[2]; Coll2-1 200 μg S.C. (Gr3), D21", "value": "Significant increase"}, {"measurement": "subchondral bone modification score", "setting": "[2]; Coll2-1 200 μg S.C. (Gr3), D21", "value": "Significant increase"}, {"measurement": "cartilage degradation criteria", "setting": "[2]; Coll2-1 200 μg S.C. (Gr3), D28", "value": "Significant increase"}, {"measurement": "loss of matrix proteoglycan", "setting": "[2]; Coll2-1 200 μg S.C. (Gr3), D28", "value": "Significant increase"}, {"measurement": "global histological score, right and left knees together, versus saline (Group 7)", "setting": "[2]; Coll2-1 200 μg S.C. (Group 3), D21", "value": "significant increase"}, {"measurement": "arthritis visual score, difference versus saline (Group 7)", "setting": "[2]; Coll2-1 200 μg/100 μl S.C. (Group 3)", "value": "statistically significant"}, {"measurement": "histological score (conclusion)", "setting": "[2]; collagen arthritis model, S.C. injection", "value": "increase"}, {"measurement": "arthritis visual score", "setting": "[2]; single S.C. injection at the base of the tail, four limbs, D0 to D28", "value": "induced an increase"}]}]}
